US5824320A, “Cosmetic or pharmaceutical compositions containing, as active ingredient, mangiferine or its derivatives, in pure form or in plant extracts” (Laboratories de Biologie Vegetale Yves Rocher, priority 1994, dated 1998)

Experiments:
[1] = UV light absorption spectrum; format: physicochemical
[2] = Anti-free radical activity (NADH/PMS superoxide, NBT reduction); format: biochemical; details: 1% solution in propylene glycol vs 0.1% rutin
Text: Anti-Free Radical Activity (determined according to V. Ponti, M. U. Dianzani, K. Cheeseman and T. F. Slater, Cehm--Biol interaction, 23 (1978) 281-291).
Superoxide anions are generated by the reaction of NADH (Nicotinamide Adenine Dinucleotide in a reduced form) with PMS (Phenazine Methosulphate). The superoxide anions reduce NBT (Nitro Blue Tetrazolium) to diformazan which is violet-blue in colour.
The appearance of reduced NBT is monitored over time using a spectrophotometer. The results are represented in FIG. 3a.
The anti-free radical activity of the extracts is expressed as rutin equivalent for a 50% inhibition.
Anti-Free Radical Activity Determined in vitro (V. Ponti, M. U. Dianzani, K. Cheeseman and T. F. Slater, Chem. Biol. interaction, 23, 281-291, 1978).
The anti-free radical activity of the extracts is expressed in rutin equivalent for a 50% inhibition.

[3] = biological target: Clostridium histolycum collagenase (Hathewaya histolytica, UniProt Q46085); assay: biochemical
Clostridium histolycum collagenase, sequence (Q46085 41-1021 limits assumed): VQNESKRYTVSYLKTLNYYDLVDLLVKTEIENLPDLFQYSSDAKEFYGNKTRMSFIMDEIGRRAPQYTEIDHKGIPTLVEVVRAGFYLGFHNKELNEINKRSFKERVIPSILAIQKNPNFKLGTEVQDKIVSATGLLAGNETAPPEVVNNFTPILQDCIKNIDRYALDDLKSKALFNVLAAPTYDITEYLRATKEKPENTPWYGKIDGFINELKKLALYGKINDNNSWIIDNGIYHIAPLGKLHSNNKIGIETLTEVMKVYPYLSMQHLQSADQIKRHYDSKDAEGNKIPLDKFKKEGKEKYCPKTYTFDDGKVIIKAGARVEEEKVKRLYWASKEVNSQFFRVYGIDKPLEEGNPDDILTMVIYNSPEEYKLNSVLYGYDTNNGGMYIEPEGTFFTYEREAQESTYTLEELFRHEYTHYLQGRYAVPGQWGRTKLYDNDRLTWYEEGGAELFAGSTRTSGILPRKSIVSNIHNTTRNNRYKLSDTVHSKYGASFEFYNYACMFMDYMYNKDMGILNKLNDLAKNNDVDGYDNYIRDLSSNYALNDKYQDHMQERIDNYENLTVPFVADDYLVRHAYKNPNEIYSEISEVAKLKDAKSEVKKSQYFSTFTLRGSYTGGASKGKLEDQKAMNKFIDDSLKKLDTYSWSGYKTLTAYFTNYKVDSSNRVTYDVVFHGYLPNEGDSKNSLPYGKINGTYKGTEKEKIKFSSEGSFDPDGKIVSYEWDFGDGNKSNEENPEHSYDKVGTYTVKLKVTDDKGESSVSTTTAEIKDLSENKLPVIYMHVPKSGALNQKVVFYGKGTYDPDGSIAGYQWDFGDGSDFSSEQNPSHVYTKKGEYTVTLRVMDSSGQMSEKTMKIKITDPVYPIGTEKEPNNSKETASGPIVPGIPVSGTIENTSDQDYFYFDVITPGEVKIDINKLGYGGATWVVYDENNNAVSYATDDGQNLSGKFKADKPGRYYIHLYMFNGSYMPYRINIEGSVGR

Solubility = format: physicochemical
pancreatic elastase = pancreatic elastase (Sus scrofa, UniProt P00772); assay: Anti-elastase activity (MeO Suc-Ala-Ala-Pro-Val-pNa substrate)
pancreatic elastase, sequence (P00772 27-266): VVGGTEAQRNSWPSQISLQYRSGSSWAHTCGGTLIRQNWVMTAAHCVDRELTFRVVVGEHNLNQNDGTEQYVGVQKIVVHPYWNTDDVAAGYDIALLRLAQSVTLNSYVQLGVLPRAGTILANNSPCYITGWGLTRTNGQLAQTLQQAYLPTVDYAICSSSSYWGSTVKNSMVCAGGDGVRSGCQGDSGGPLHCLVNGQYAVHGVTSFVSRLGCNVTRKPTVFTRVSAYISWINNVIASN

[4] = Photostability under continuous xenon lamp radiation (half-life time of absorption); details: aqueous solution, compared with benzophenone 4 under the same conditions
hyaluronidase = assay: Anti-hyaluronidase activity (N-acetylglucosamine liberated from hyaluronic acid); format: biochemical; details: Mangifera extract 1% dry extract; heparin Sigma 10 USP/ml
Method: Anti-Hyaluronidase Activity (determined according to Jose L. Reissig, Jack L. Stominger and Luis F. Leloior, 05.12.1955).
The N-acetylglucosamine liberated after 45 minutes during the reaction of the hyaluronidase with hyaluronic acid is measured using a spectrophotometer. A process for reducing the anhydrous sugars, which in acid medium are converted to furan derivatives, is used; the said sugars react with para-dimethylaminobenzaldehyde to form a coloured complex.
The activity is expressed in μg of N-acetylglucosamine formed per minute.
The anti-hyaluronidase activity is expressed as a quantity of extract for obtaining 50% inhibition.
Anti-Hyaluronidase Activity Determined in vitro (Jose L. Reissig, Jack L. Strominger and Luis F. Leloir, J. Biol.--Chem. 217, 960-966, 1953).
The anti-hyaluronidase activity is expressed as quantity of extract for obtaining 50% inhibition. The results are plotted in Figure 5b.

Compound	UV absorption maximum corresponding to the zone of UVA rays ([1]; UVA zone)	UV absorption maximum corresponding to UVB rays ([1]; UVB zone)	phototoxicity (Phototoxicity check)	anti-free radical activity relative to rutin reference solution [2]	IC50 [3]	solubility in alkaline liquids (Solubility; alkaline liquids)	solubility in cold water (Solubility; cold water)	IC50 (pancreatic elastase)	photostability (resistance to irradiation, half-life time) [4]	half-inhibition volume IV50 (anti-hyaluronidase) (hyaluronidase)
O=c1c2cc(O)c(O)cc2oc2cc(O)c([C@@H]3O[C@H](CO)[C@@H](O)[C@H](O)[C@H]3O)c(O)c12 [mangiferine, C-glucoside of 1,3,6,7-tetrahydroxy xanthone]	around 360 nm	around 320 nm	absence of phototoxicity	4 times	~118 µM	soluble	very sparingly soluble	~23.7 µM	equally resistant to irradiation, with a very similar half-life time	
heparin										380 µL
